In publication PMC12459314, “Subcutaneous administration of a novel TRPM8 antagonist reverses cold hypersensitivity while attenuating the drop in core body temperature” (British journal of pharmacology, 2024):

What was measured:
oxaliplatin-treated mice = experiment: Oxaliplatin-induced cold hyperalgesia, cold-plantar test; type: in vivo, mouse
Method: Male and female C57 BL/6J mice from Taconic Labs were randomized by sex and cage to oxaliplatin or vehicle groups. Mice were weighed and injected intraperitoneally (i.p.) with either oxaliplatin (3 mg·kg^−1), or vehicle (5% dextrose) once per day every day for five consecutive days, followed by five days off, and then by a second round of once per day for five more days. Therefore, mice received a total of 10 injections for a total of 30 mg·kg^−1. The average weight of the females was 18 g while of the males was 20 g. Consequently, the females received an average of 540 and the males 600 μg in total. Behavioural testing was started after the second round of oxaliplatin/vehicle administration. The cold-plantar test was used to assess changes in cold sensitivity. A 3 ml syringe barrel filled with powdered dry ice was used as the stimulus. The dry ice is placed on the glass (borosilicate glass; thickness, 1/8 in. (3.17 mm); temperature, 75°F (24°C), measured with a calibrated IR temperature probe) beneath the hindpaw and the latency to withdraw was determined ([Yilmaz et al., 2017]). The baseline withdrawal latency was determined from the mean of three stimulus applications (at an inter-stimulus interval of ~5 min), while that at each time interval after the administration of a test agent was again the mean of three stimulus applications bracketing the time point in question (i.e., 5 min before, at the time point, and 5 min after). Mice in the two groups defined by oxaliplatin treatment were subsequently randomized to the order of treatment (with the TRPM8 antagonist VBJ103, or vehicle control). VBJ103 and vehicle solutions were administered subcutaneously (s.c.) at doses of 3, 10 and 30 mg·kg^−1. Mice were tested every other day over 7 days so that each mouse received all four injections (vehicle and three doses of VBJ103). In a second cohort of male (n = 8) and female (n = 8) mice, all mice were treated with oxaliplatin as described above, and then randomized to the order of treatment with vehicle, VBJ103 (30 mg·kg^−1) alone, the TRPA1 antagonist, HC-030031 (200 mg·kg^−1) alone, or the combination of VBJ103 (30 mg·kg^−1) and HC-030031 (200 mg·kg^−1). A third cohort of male (n = 7) and female (n = 8) mice was also treated with oxaliplatin as described above. […] All test agents in both follow-up cohorts were again administered in a volume of 5 ml·kg^−1. Mice in both follow-up cohorts were again tested every other day over a period of 6 days. Finally, a fourth cohort of male (n = 4) and female (n = 4) mice was used to confirm that 200 mg·kg^−1 HC-030031 was sufficient to block TRPA1. For this experiment, mice were randomized to the order of treatment with vehicle or HC-030031 ([…]).

human TRPA1 = molecular target: T1, human TRPA1 (Homo sapiens, UniProt O75762); experiment: FlexStation Ca2+ flux assay in HEK293T cells transfected with human TRPA1; type: cell-based; details: against an EC80 concentration (10 μM) of AITC
T1 construct: expressed in transfected cells; host or cells: HEK293T
Method: (§1) The human embryonic kidney cell line (HEK293T, CRL-1573, RRID: CVCL_0045) was purchased from the American Type Culture Collection (Manassas, USA) and was maintained in Dulbecco’s Minimal Essential Medium (DMEM, Cellgro10013CV, Corning, Tewksbury, USA) that was supplemented with 10% fetal bovine serum (Gemini Bio-products), 2-mM L-glutamine (Invitrogen) and 100 U/mL penicillin and streptomycin (Invitrogen) and cultured in an incubator at 37°C, 5% CO2 and 95% humidity. Human TRPV1 and TRPA1 plasmid DNA (gift from D. Julius) were transiently bulk transfected individually into HEK293T cells using the FuGene HD transfection reagent (TFR, Promega, Madison, WI, USA) at a 3:1 ratio (TFR:DNA). Transfected cells were seeded at 10,000 cells per well in a volume of 25 μl into black walled collagen coated 384-well microtiter plates and cultured in an incubator at 37°C, 5% CO2 and 95% humidity for 48 h prior to the initiation of calcium mobilization experiments performed on a FlexStation 3 (Molecular Devices, Sunnyvale, CA, USA) platform equipped with a 16-channel robotic pipettor head and FLIPR tetra pipette tips. At 46 h post transfection, cell monolayers were preloaded with 25 μl of the FLIPR Calcium 6 dye (Molecular Devices) for 2 h in an incubator at 37°C, 5% CO2 and 95% humidity according to the manufacturer’s instructions. The plate was transferred to a FlexStation 3 microplate reader. Relative fluorescence units (RFUs) (Ex. 485 nm, Em 525 nm) were then acquired at 37°C in the kinetic mode. The run time for the agonist (1st) and antagonist (2nd) reads were 60 s each, for a total run time of 120 s, with an interval of 3.1 s between reads in the same well to allow all 16 wells in a column to be read sequentially, and the photomultiplier tube (PMT) level was set at medium, with 6 flashes per read. Baseline Fluo-6 RFUs were acquired for 18 s prior to the addition of compound in both the agonist and antagonist reads. For the first addition agonist read, the volume in the well was 50 μl, the pipette height was set at 40 μl, and 12.5 μl of the test compound was delivered at a speed of 2 μl·s^−1 after the baseline RFU’s acquisition period at 19 s, and the RFUs were acquired for an additional 41 s. For the second addition antagonist read, the volume in the well was 62.5 μl, the pipette height was set at 40 μl, and 12.5 μl of an EC80 agonist concentration was delivered at a speed of 2 μl/s after the baseline RFU’s acquisition period at 19 s, and the RFUs were acquired for an additional 41 s. The FlexStation 3 instrument settings, automated pipetting and data collection were all controlled by the SoftMax Pro software, version 7.1.2.
To analyse the agonist and antagonist Ca^2+ mobilization Fluo-6 RFU’s kinetic data, the RFU’s readings acquired throughout the 60-s acquisition period for each individual well were divided by the average RFU values acquired during the first 18-s baseline acquisition period from the same well to calculate a fold over baseline (FOB) ratio.

AITC-treated mice = experiment: AITC-induced nociceptive behaviours; type: in vivo, mouse; details: HC-030031 200 mg·kg−1, 30 min before AITC 3 mg·kg−1 i.p.; quantified over 20 min
Method: Male and female C57 BL/6J mice from Taconic Labs were randomized by sex and cage to oxaliplatin or vehicle groups. Mice were weighed and injected intraperitoneally (i.p.) with either oxaliplatin (3 mg·kg^−1), or vehicle (5% dextrose) once per day every day for five consecutive days, followed by five days off, and then by a second round of once per day for five more days. Therefore, mice received a total of 10 injections for a total of 30 mg·kg^−1. The average weight of the females was 18 g while of the males was 20 g. Consequently, the females received an average of 540 and the males 600 μg in total. Behavioural testing was started after the second round of oxaliplatin/vehicle administration. The cold-plantar test was used to assess changes in cold sensitivity. […] The dry ice is placed on the glass (borosilicate glass; thickness, 1/8 in. (3.17 mm); temperature, 75°F (24°C), measured with a calibrated IR temperature probe) beneath the hindpaw and the latency to withdraw was determined ([Yilmaz et al., 2017]). The baseline withdrawal latency was determined from the mean of three stimulus applications (at an inter-stimulus interval of ~5 min), while that at each time interval after the administration of a test agent was again the mean of three stimulus applications bracketing the time point in question (i.e., 5 min before, at the time point, and 5 min after). […]

[1] = Core body temperature and home cage activity by radiotelemetry (s.c., i.p.); type: in vivo, mouse; details: capsaicin 1 mg·kg−1 s.c.
Method: Male and female C57Bl6J (Jackson Laboratories, Bar Harbor, USA, 8–12 weeks of age, 4 M:3F) were anaesthetised with isoflurane (2%–3% in 100% oxygen), and an HDX11 telemetry unit (Data Sciences) was inserted into the peritoneal cavity through a ventral midline incision. Animals were treated with buprenex (0.05 mg·kg^−1, s.c.every 8 h for 72 h) and enrofloxacin (2 mg·kg^−1, s.c.) and single-housed in a reverse light–dark cycle room (lights off 10 AM–10 PM). Mice were handled every day to acclimatise to injections, and experiments began 1 week later. All injections were performed between 1 and 2 PM. […] Body temperature was averaged into 5-min bins, whereas activity data were summed for the 5-min bin.

human TRPV1 = molecular target: T2, human TRPV1 (Homo sapiens, UniProt Q8NER1); experiment: FlexStation Ca2+ flux assay in HEK293T cells transfected with human TRPV1; type: cell-based
T2 construct: expressed in transfected cells; host or cells: HEK293T
Method: as §1, with “Transfected cells were seeded at 10,000 cells per well in a volume of 25 μl into black walled collagen coated 384-well microtiter plates and cultured in an incubator at 37°C, 5% CO2 and 95% humidity for 48 h prior to the initiation of calcium mobilization experiments performed on a FlexStation 3 (Molecular Devices, Sunnyvale, CA, USA) platform equipped with a 16-channel robotic pipettor head and FLIPR tetra pipette tips. At 46 h post transfection, cell monolayers were preloaded with 25 μl of the FLIPR Calcium 6 dye (Molecular Devices) for 2 h in an incubator at 37°C, 5% CO2 and 95% humidity according to the manufacturer’s instructions.” left out, “The FlexStation 3 instrument settings, automated pipetting and data collection were all controlled by the SoftMax Pro software, version 7.1.2.” left out

[2] = Partition coefficient (logD), shake flask method; type: physicochemical; details: n-octanol / pH 7.4 phosphate buffer
Method: The partition coefficient (logD) at pH 7.4 of VBJ103 was determined using the shake flask method by Absorption Systems (Exton, PA, USA). The buffer was prepared by combining 50 ml of 0.2-M solution of KH2PO4 with 150 ml of dH2O and then adjusting to pH 7.4 with 10-N NaOH. In a single incubation, 15 μl of a 10-mM DMSO solution of each test article was added to test tubes which contained 0.75 ml of n-octanol and 0.75 ml of pH 7.4 phosphate buffer. Testosterone was also introduced to each tube as an internal control, also at a dosing concentration of 100 μM. These samples were gently mixed on a benchtop rotator for 1 h at room temperature. The tubes were then removed from the rotator, and the aqueous and organic phases were allowed to separate for 1 h. An aliquot of the organic layer was taken and diluted 200-fold into a mixture of 1:1 buffer: acetonitrile (ACN). An aliquot of the aqueous layer was taken and diluted 2-fold, 10-fold and 200-fold into a mixture of 1:1 buffer: ACN. All samples were assayed by LC–MS/MS on a Thermo BDS Hypersil C18 column (30 × 2.1 mm, 3 μm) using electrospray ionization, as previously reported ([Journigan et al., 2020]).

[3] = ref Journigan et al, 2020; cited from earlier work
[4] = Core body temperature by radiotelemetry after i.c.v. administration; type: in vivo, mouse; details: 3 nmol in 1 μL i.c.v.; within 60 min; in five of eight mice
Method: A second set of male C57Bl6J mice (Jackson Laboratories, n = 8) was implanted with telemetry as described above and a 26-gauge brain cannula (Plastics One) targeted at the lateral ventricle using coordinates relative to Bregma: 0.3 mm caudal, 1.0 mm lateral, 3.0 mm ventral. This second procedure was also performed under isoflurane anesthesia. The brain cannula was secured to the skull with two screws and dental cement. Animals were treated with buprenex (0.05 mg·kg^−1, s.c. every 8 h for 48 h) and enrofloxacin (2 mg·kg^−1, s.c.), singly housed and handled daily as described above. A single i.c.v. injection was performed every other day in a randomized order and included: (1) Galanin-like peptide (3 nmol/1 μL), (2) VBJ103 (306 nmol/1 μL) and (3) VBJ103 vehicle (1 μL). Galanin-like peptide produced a decrease in body temperature in five of eight mice. Therefore, body temperature data in response to VBJ103 and vehicle are presented in these five mice. These studies were carried out with a single dose of VBJ103 (306 nmol/1 μL or ~4 mg·kg^−1), which was the highest dose achievable due to constraints of the injection volume and the solubility of VBJ103.

T1 sequence (O75762 whole entry): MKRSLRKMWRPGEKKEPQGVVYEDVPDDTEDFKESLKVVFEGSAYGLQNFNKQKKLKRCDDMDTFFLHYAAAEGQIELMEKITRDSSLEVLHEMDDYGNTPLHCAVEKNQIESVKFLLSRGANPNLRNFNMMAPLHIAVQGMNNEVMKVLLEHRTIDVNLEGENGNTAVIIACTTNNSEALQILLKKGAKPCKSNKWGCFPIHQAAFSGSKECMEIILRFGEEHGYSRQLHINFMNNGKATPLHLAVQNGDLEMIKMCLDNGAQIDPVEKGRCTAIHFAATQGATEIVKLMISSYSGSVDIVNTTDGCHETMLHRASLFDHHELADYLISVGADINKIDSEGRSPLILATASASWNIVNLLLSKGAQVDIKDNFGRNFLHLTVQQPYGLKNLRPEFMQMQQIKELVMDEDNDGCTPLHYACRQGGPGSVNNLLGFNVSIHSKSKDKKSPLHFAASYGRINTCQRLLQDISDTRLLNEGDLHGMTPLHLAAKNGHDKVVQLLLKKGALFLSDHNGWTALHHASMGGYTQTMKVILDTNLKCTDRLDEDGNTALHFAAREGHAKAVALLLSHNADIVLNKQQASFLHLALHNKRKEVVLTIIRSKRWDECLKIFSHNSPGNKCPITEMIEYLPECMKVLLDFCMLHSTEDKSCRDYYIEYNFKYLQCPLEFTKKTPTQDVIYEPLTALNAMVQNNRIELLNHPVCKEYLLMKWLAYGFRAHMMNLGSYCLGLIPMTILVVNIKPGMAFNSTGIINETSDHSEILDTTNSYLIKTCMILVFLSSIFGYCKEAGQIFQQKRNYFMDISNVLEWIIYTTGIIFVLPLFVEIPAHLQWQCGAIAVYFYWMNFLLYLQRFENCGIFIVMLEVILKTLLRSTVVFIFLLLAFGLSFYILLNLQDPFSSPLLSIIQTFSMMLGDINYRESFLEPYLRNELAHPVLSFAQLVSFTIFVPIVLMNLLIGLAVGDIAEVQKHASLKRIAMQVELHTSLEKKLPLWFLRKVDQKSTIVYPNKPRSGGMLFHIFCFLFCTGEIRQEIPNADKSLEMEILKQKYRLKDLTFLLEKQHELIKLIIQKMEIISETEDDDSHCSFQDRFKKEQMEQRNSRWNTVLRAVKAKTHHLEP
T2 sequence (Q8NER1 whole entry): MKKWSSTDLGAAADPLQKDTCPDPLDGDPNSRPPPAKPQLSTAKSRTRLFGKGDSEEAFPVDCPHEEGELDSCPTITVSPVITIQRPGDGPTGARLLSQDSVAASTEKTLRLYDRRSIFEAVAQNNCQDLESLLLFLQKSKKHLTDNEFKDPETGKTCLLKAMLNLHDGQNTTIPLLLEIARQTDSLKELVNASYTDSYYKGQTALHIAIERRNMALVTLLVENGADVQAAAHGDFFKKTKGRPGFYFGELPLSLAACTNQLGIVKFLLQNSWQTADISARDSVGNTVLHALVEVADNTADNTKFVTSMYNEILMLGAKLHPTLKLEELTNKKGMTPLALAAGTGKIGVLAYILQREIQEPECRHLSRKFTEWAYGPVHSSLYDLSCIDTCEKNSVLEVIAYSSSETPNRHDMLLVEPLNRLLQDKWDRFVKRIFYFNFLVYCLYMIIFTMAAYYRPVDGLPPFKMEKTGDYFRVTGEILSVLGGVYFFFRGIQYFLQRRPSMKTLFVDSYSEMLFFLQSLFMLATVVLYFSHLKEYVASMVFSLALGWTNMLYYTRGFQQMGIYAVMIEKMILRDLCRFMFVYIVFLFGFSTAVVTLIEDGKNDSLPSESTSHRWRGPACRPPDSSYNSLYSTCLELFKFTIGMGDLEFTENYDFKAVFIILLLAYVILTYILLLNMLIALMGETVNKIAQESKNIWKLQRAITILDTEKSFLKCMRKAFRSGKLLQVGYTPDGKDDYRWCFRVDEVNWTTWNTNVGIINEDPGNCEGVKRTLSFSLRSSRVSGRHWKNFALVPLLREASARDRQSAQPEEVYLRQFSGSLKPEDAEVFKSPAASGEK

Fc1ccc(C(OCCN2CCN(CCCc3ccccc3)CC2)c2ccc(F)cc2)cc1 [GBR12909, reference compound]
influence on withdrawal latency to noxious cold stimuli (oxaliplatin-treated mice; 20 mg·kg−1 alone, third cohort, vehicle 1:1 DMSO:water): no detectable influence

CC(C)c1ccc(NC(=O)Cn2cnc3c2c(=O)n(C)c(=O)n3C)cc1 [HC-030031, reference compound]
IC50 (human TRPA1): 2000 ± 830 nM
maximum inhibition at TRPA1 (human TRPA1): 54%
influence on oxaliplatin-induced cold hypersensitivity (oxaliplatin-treated mice; 200 mg·kg−1 alone, second cohort, vehicle 0.5% Methocel): failed to detect an influence
AITC-induced nociceptive behaviours (AITC-treated mice): significantly attenuated

COc1cc(CNC(=O)CCCC/C=C/C(C)C)ccc1O [capsaicin, reference compound]
time of peak drop in CBT [1]: ≤ 60 min
drop in CBT versus s.c. VBJ103 or PBMC ([1]; positive control): significantly larger drop

Oc1cc2c(cc1O)CN(C(=S)NCCc1ccc(Cl)cc1)CCC2 [capsazepine, reference compound]
IC50 (human TRPV1): 566 ± 86 nM

Cl.Cl.Cl.Cl.Cl.Cl.N.N.N.N.N.N.N.N.N.N.N.N.N.N.[O-2].[O-2].[Ru+3].[Ru+3].[Ru+4] [ruthenium red, reference compound]
IC50 (human TRPA1): 53 ± 7 nM

C[C@]12CC[C@H]3[C@@H](CCC4=CC(=O)CC[C@@]43C)[C@@H]1CC[C@@H]2O [testosterone, reference compound]
logD at 1 h [2]: 3.09
Mouse Liver microsomes, T1/2 [3]: 3.7 min

galanin-like peptide: peptide given i.c.v. as positive control for a decrease in body temperature (APAHRGRGGWTLNSAGYLLGPVLHLPQMGDQDGKRETALEILDLWKAIDGLPYSHPPQPS; Galanin-like peptide; UniProt Q9UBC7 25-84, looked up) [reference compound]
decrease in CBT [4]: > 3 °C
